According to paper PMC4109680, “Identification and Preclinical Pharmacology of the γ-Secretase Modulator BMS-869780” (International Journal of Alzheimer's Disease, 2014):

Legend:
Aβ1-42 (H4-APPsw) = assay: Aβ1-42 time-resolved fluorescence immunoassay in H4-APPsw cell cultures; format: cell-based, human; details: Homo sapiens; H4-APPsw cultures treated overnight
Method: (§1) H4-APPsw cell cultures were maintained on Dulbecco's modified Eagle's medium (DMEM) supplemented with L-glutamine (2 mM), fetal bovine serum (10%), and G418 (100 μg/mL). […] Aβ1-42 and Aβ1-40 assays, and Notch inhibition assays, were carried out as described previously. Mouse embryonic fibroblasts deficient in PS1 and PS2 (MEF dKO) were passaged twice per week in DMEM/F-12 medium, consisting of a 1 : 1 mixture of DMEM and F-12 nutrient mixture supplemented with 10% fetal bovine serum, penicillin, and streptomycin. For expression of human presenilin-1 in MEF dKO cells, the full length human presenilin-1 cDNA open reading frame was cloned between the BamHI and XhoI sites of the vector pcDNA5/FRT (Invitrogen), placing presenilin-1 expression under the control of the CMV promoter. The M146V mutated allele was introduced into the presenilin-1 expression construct by polymerase chain reaction using the oligonucleotide primers 5′-[…]-3′ and 5′-[…]-3 (QuikChange kit, Invitrogen). MEF dKO cultures were cotransfected with DNA constructs expressing APP-CTF, encoding the C-terminal 99 amino acids of APP [61] and either the human presenilin-1 or presenilin-1 M146V allele. Transfected cultures were incubated overnight at 37°C in 5% CO2 atmosphere and then harvested, resuspended in DMEM/F-12 medium, dispensed into 96-well culture plates, and incubated for 6 hours at 37°C in 5% CO2 atmosphere. Culture medium was then replaced with Ultraculture serum free medium (Lonza, Rockland, ME) with or without compounds at a range of concentrations and incubated overnight.
(§2) IC50 determinations for Aβ1-42 and Aβ1-40 in H4-APPsw cultures in 384-well format were determined using homogeneous time-resolved fluorescence immunoassays as previously described. The principle of these assays is illustrated in Figures 1(c) and 1(d). In other experiments using H4-APPsw cultures, Aβ was quantified by ELISA; for Aβ1-42 the combination of monoclonal antibodies was 26D6 and 565-HRP; for Aβ1-40 it was TSD and 26D6-HRP, and for Aβ1-x it was 4G8 and 26D6-HRP. In some experiments a novel 4-plex Aβ electrochemiluminescence immunoassay was used (Mesoscale Discovery catalog number N45ZA-1). Briefly, the 4-plex was carried out in 96-well format, with 4 separate spots of capture antibodies in each well. […] For Aβ in transiently transfected PS1/PS2 dKO fibroblasts, Aβ1-42 was quantified using an ELISA kit (WACO), and Aβ1-40 was quantified by ELISA as described above for H4-APPsw cultures. […] For the rat and mouse experiments illustrated in Figures 7 and 8, brain samples were prepared by solid phase extraction, and endogenous rat brain Aβ1-42 and Aβ1-40 were quantified by ELISA as previously described for wild type mice. […]

Aβ1-40 (H4-APPsw) = assay: Aβ1-40 time-resolved fluorescence immunoassay in H4-APPsw cell cultures; format: cell-based, human; details: Homo sapiens; H4-APPsw cultures treated overnight
Method: as §1, §2

mNotch1ΔE = assay: Notch signaling CBF1-luciferase reporter assay in HeLa cells transfected with mNotch1ΔE; format: cell-based
Method: (§3) Inhibition of Notch signaling in cultured cells using a mouse-derived truncated Notch1 transgene, mNotch-ΔE [67], has been described in detail previously. Western blots for mNotchΔ1865 and NICD using 9E10 anti-c-myc monoclonal were carried out as previously described.
(§4) The effect of BMS-869780 on Notch processing was evaluated using transcriptional reporter assays and western blotting of NICD levels. HeLa cell cultures were transfected with mNotch1ΔE and CBF1-luciferase reporter constructs and treated with BMS-869780. In most replicates of this experiment, inhibition of luciferase reporter occurred with IC50 > 10 μM. […] To further evaluate the effect of BMS-869780 on Notch processing, western blots of cell cultures were carried out using mNotch1Δ1865, a truncated version of mNotch1ΔE that facilitates separation of NICD product from mNotch1 substrate on western blots. HeLa cell cultures were transfected with mNotch1Δ1865 and treated overnight with compounds before western blotting. […] Furthermore, the GSIs caused an increased level of mNotch1Δ1865 substrate, most likely due to inhibition of its turnover by γ-secretase, as previously noted by Blat et al..
(§5) (b) HeLa cell cultures were transfected with mNotchΔ1865, treated with compounds overnight, and cell extracts were evaluated by western blot using anti-c-myc-HRP conjugate. Lanes 1 and 9: DMSO (0.1%) vehicle. Lane 2: BMS-299897 at 1 μM. Lane 3: BMS-433796 at 0.3 μM. Lanes 4–8: BMS-869780 at 0.1, 0.3, 1, 3, and 10 μM, respectively.

mNotch1Δ1865 = assay: Western blot of NICD and mNotch1Δ1865 in transfected HeLa cell cultures; format: cell-based; details: BMS-299897 at 1 μM, BMS-433796 at 0.3 μM
Method: as §3, §4, §5

In the case of `C[C@H](NC(=O)[C@@H](O)c1cc(F)cc(F)c1)C(=O)N[C@@H]1C(=O)N(C)N=Cc2ccccc21` [BMS-433796, (S)-2-((S)-2-(3,5-difluorophenyl)-2-hydroxyacetamido)-N-((S,Z)-3-methyl-4-oxo-4,5-dihydro-3H-benzo[d][1,2]diazepin-5-yl)propanamide, reference compound], the IC50 (Aβ1-42 (H4-APPsw)) is reported as 0.16 nM, the IC50 (Aβ1-40 (H4-APPsw)) is reported as 0.19 nM and the “Notch/Aβ1-42 IC50 ratios” value (mNotch1ΔE; GSIs) is reported as 13. For the same molecule, the IC50 (mNotch1ΔE; HeLa, treated overnight) was 2.1 nM, the mNotch1ΔE/Aβ1-42 (mNotch1ΔE; ratio of IC50 values) was 13x and the NICD levels (mNotch1Δ1865) was “greatly reduced NICD”.
